Source: patent publication US7629356B2, “Substituted pyrrolo[3,4-b]pyridinamines and pharmaceutical compositions” (AstraZeneca AB, priority 2007, dated 2009)

What follows are compounds tested against T1, human β-Secretase (soluble part AA1-AA460, sBACE-Fc) (Homo sapiens, UniProt P56817) (assay: TR-FRET assay). Conditions: substrate (Europium)CEVNLDAEFK(Qsy7) 100 nM, pH 4.5, 15 min at RT.
T1 construct: The soluble part of the human β-Secretase (AA1 -AA460) was cloned; Fc domain of IgG1; made in house
Type: biochemical
Experimental: The enzyme used in the IGEN Cleavage-, Fluorescent-, TR-FRET- and BiaCore assays is described as follows:
The soluble part of the human β-Secretase (AA1 -AA460) was cloned into the ASP2-Fc10-1-IRES-GFP-neoK mammalian expression vector. The gene was fused to the Fc domain of IgG1 (affinity tag) and stably cloned into HEK 293 cells. Purified sBACE-Fc is stored in Tris buffer, pH 9.2 and has a purity of 95%.
Enzyme was diluted to 6 μg/mL and the substrate (Europium)CEVNLDAEFK(Qsy7) to 200 nM in reaction buffer (NaAcetate, chaps, triton x-100, EDTA pH 4.5). Compounds were diluted to the desired concentration in dimethyl sulfoxide (final dimethyl sulfoxide concentration in assay is 5%). The assay was done in a Costar 384 well round bottom, low volume, non-binding surface plate (Corning #3676). Enzyme (9 μL) and 1 μL of compound in dimethyl sulfoxide was added to the plate, mixed and pre-incubated for 10 min. Substrate (10 μL) was added and the reaction proceeded in the dark for 15 min at RT. The reaction was stopped with the addition of 7 μL NaAcetate, pH 9. The fluorescence of the product was measured on a Victor II plate reader with an excitation wavelength of 340 nm and an emission wavelength of 615 nm. The final concentration of the enzyme was 2.7 μg/ml and the final concentration of the substrate was 100 nM (Km of 290 nM). The dimethyl sulfoxide control defined the 100% activity level and 0% activity was defined by exclusion of the enzyme (using reaction buffer instead).

T1 sequence (P56817 22-460): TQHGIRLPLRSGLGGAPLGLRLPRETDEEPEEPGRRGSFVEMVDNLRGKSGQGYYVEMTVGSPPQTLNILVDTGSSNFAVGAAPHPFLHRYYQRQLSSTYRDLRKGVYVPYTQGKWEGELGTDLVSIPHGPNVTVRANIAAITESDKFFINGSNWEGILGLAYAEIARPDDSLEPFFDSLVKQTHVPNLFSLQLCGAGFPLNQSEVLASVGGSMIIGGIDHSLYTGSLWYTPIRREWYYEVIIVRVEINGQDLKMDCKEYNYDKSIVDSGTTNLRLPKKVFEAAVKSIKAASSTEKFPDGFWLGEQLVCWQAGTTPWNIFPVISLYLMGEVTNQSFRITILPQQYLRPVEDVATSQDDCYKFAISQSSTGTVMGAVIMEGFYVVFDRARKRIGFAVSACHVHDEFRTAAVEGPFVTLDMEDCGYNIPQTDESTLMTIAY

| Ki | Compound |
| --- | --- |
| 91 nM | NC1=NC(c2ccncc2)(c2cccc(-c3cncnc3)c2)c2cnccc21 (stereo not drawn) [Example 16, 3-Pyridin-4-yl-3-(3-pyrimidin-5-ylphenyl)-3H-pyrrolo[3,4-c]pyridin-1-amine] |
| 282 nM | COc1ccc(C2(c3cccc(-c4cncnc4)c3)N=C(N)c3ncccc32)cc1 (stereo not drawn) [Example 5, 5-(4-Methoxyphenyl)-5-(3-pyrimidin-5-ylphenyl)-5H-pyrrolo[3,4-b]pyridin-7-amine] |
| 324 nM | NC1=NC(c2ccncc2)(c2cccc(-c3cncnc3)c2)c2cccnc21 (stereo not drawn) [Example 10, 5-Pyridin-4-yl-5-(3-pyrimidin-5-ylphenyl)-5H-pyrrolo[3,4-b]pyridin-7-amine] |
| 339 nM | COc1ccc(C2(c3cccc(-c4cccnc4)c3)N=C(N)c3ncccc32)cc1 (stereo not drawn) [Example 8, 5-(4-Methoxyphenyl)-5-(3-pyridin-3-ylphenyl)-5H-pyrrolo[3,4-b]pyridin-7-amine] |
| 62 nM | NC1=NC(c2ccncc2)(c2cccc(-c3cccnc3F)c2)c2cnccc21 (stereo not drawn) [Example 17, 3-[3-(2-Fluoropyridin-3-yl)phenyl]-3-pyridin-4-yl-3H-pyrrolo[3,4-c]pyridin-1-amine] |
| 295 nM | NC1=NC(c2ccncc2)(c2cccc(-c3cccnc3F)c2)c2cccnc21 (stereo not drawn) [Example 9, 5-[3-(2-Fluoropyridin-3-yl)phenyl]-5-pyridin-4-yl-5H-pyrrolo[3,4-b]pyridin-7-amine] |
| 178 nM | COc1ccc(C2(c3cccc(-c4cncc(OC)c4)c3)N=C(N)c3ncccc32)cc1 (stereo not drawn) [Example 7, 5-(4-Methoxyphenyl)-5-[3-(5-methoxypyridin-3-yl)phenyl]-5H-pyrrolo[3,4-b]pyridin-7-amine] |
| 219 nM | COc1ccc(F)c(-c2cccc(C3(c4ccncc4)N=C(N)c4ncccc43)c2)c1 (stereo not drawn) [Example 11, 5-(2′-Fluoro-5-methoxybiphenyl-3-yl)-5-pyridin-4-yl-5H-pyrrolo[3,4-b]pyridin-7-amine 0.25 acetate] |
| 275 nM | COc1ccc(C2(c3cccc(-c4cccnc4F)c3)N=C(N)c3ncccc32)cc1 (stereo not drawn) [Example 6, 5-[3-(2-Fluoropyridin-3-yl)phenyl]-5-(4-methoxyphenyl)-5H-pyrrolo[3,4-b]pyridin-7-amine] |
| 93 nM | NC1=NC(c2ccncc2)(c2cccc(-c3cccnc3F)c2)c2ncccc21 (stereo not drawn) [Example 21, 7-[3-(2-Fluoropyridin-3-yl)phenyl]-7-pyridin-4-yl-7H-pyrrolo[3,4-b]pyridin-5-amine] |
| 170 nM | NC1=NC(c2ccncc2)(c2cccc(-c3cncnc3)c2)c2ncccc21 (stereo not drawn) [Example 22, 7-Pyridin-4-yl-7-(3-pyrimidin-5-ylphenyl)-7H-pyrrolo[3,4-b]pyridin-5-amine] |

| Compound | Ki |
| --- | --- |
| COc1cccc(-c2cccc(C3(c4ccncc4)N=C(N)c4ncccc43)c2)c1F (stereo not drawn) [Example 12, 5-(2′-Fluoro-3′-methoxybiphenyl-3-yl)-5-pyridin-4-yl-5H-pyrrolo[3,4-b]pyridin-7-amine 0.5 acetate] | 398 nM |
